Each structure is given as a SMILES string. Values joined by “and” are separate entries in the source; they are usually repeats but may differ in a detail not shown here. Identical values can stand only once.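 Exposure lasted 48 hours, with cells grown in 96-well plates and compounds tested at five concentrations. GI50 is the concentration that inhibits growth by half. TGI denotes the concentration required for complete inhibition of growth.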

Holding throughout (experiment): NCI-60 cell line screen, 48 h
The test system of assay [1] is ACHN renal.
Assay [2] relates to HCT-15 colon.
For assay [3], the system named is HOP-62 NSCLC.
The test system of assay [4] is HT29 colon.
In assay [5] the test system is IGROV1 ovarian.
For assay [6], the system named is NCI-H226 lung.
Assay [7] relates to NCI-H23 lung.
The test system of assay [8] is SF-268 CNS.
For assay [9], the system named is SW-620 colon.
Assay [10] deals with UACC-62 melanoma.

For `CCC1CC2CN3CCc4c([nH]c5c(-c6c(OC)ccc7c8c([nH]c67)[C@]6(C(=O)OC)CC7CC(CC)C6N(CC8)C7)c(O)ccc45)[C@](C(=O)OC)(C2)C13` (stereo partly drawn), the TGI was found to be 64 µM in assay [1]; 31.4 µM in assay [2]; 28.5 µM in [3]; 18.6 µM in assay [4]; 31.3 µM in assay [5]; 22 µM in assay [6]. Moreover, the TGI in assay [7] amounted to 34.4 µM; in assay [8], 32.9 µM; in [9] it was 25.6 µM; in [10] it was 29.6 µM.
Take `Cc1cc(N(CCC#N)CCC#N)ccc1/C(N=Nc1cccc([N+](=O)[O-])c1)=N/NC(=O)c1cc(Cl)ccc1O`: the TGI is > 100 µM in assay [1]; 80.5 µM in assay [2]; > 100 µM in [3]; > 100 µM in [4]; 32.8 µM in assay [5]; > 100 µM in assay [6]. Further, the TGI in [7] was 64.1 µM; in assay [8] it was > 100 µM; in assay [9] it was > 100 µM; in [10] it was 40.2 µM.
On to `CC(=O)Nc1ccc(CNc2cc(=O)[nH]c(=O)[nH]2)cc1`, for which the TGI in [1], in assay [2], in assay [3], in [4], in assay [5] and in assay [6] was > 100 µM each time. For the same compound, the TGI in assay [7], in assay [8], in [9] and in [10] was > 100 µM throughout.
For the compound `O=C1C2C=CC1C1C(=O)OC(=O)C21` (stereo not drawn), the TGI in assay [1], in assay [2], in assay [3], in assay [4], in [5] and in [6] was > 100 µM in each case. Also, the TGI in assay [7], in assay [8], in assay [9] and in assay [10] was > 100 µM throughout.
As for `Nc1nc(Cl)cc(NCC2(CO)CCC(Cc3ccccc3)C2)n1` (stereo not drawn), the TGI is > 100 µM in assay [1]; > 100 µM in assay [2]; > 100 µM in assay [3]; > 69.4 µM in assay [4]; > 100 µM in assay [5]; 98.7 µM in [6]. The TGI is 72.3 µM in assay [7], > 100 µM in assay [8], > 100 µM in assay [9] and 40.1 µM in [10].
As to `O=C(CSc1nc(=O)[nH]c2nc[nH]c12)Nc1ccccc1`, the TGI in assay [1], in assay [2], in assay [3], in assay [4], in assay [5] and in assay [6] was > 100 µM throughout. Further, the TGI in assay [7], in assay [8], in assay [9] and in assay [10] was > 100 µM throughout.
For `Cc1nn(C(=O)c2ccc(Cl)cc2)c2c1C(c1ccc([N+](=O)[O-])cc1)SC(N)=N2` (stereo not drawn), the TGI in [1], in [2], in [3], in assay [4], in [5] and in [6] was > 10 µM each time. The TGI in [7], in assay [8], in assay [9] and in assay [10] was > 10 µM each time.
For `N#CCC(=O)Nn1c(CC#N)nnc1Cc1ccccc1`, the TGI in assay [1], in [2], in [3], in assay [4], in [5] and in [6] was > 100 µM each time. Also, the TGI in [7], in assay [8], in [9] and in assay [10] was > 100 µM throughout.
For `COc1cc(/C=C/C(C)=O)ccc1OP(=O)(O)O`, the TGI in assay [1], in [2], in assay [3], in assay [4], in [5] and in [6] was > 100 µM in each case. The TGI in [7], in assay [8], in [9] and in assay [10] was > 100 µM throughout.
As to `COc1ccc(C2SCC(=O)N2c2ccc(-c3ccc(-n4c(-c5ccccc5)nc5ccccc5c4=O)cc3)cc2)cc1` (stereo not drawn), the TGI was > 100 µM in assay [1]; > 100 µM in [2]; > 100 µM in assay [3]; 30.5 µM in assay [4]; > 100 µM in assay [5]; > 100 µM in assay [6]. The TGI in assay [7], in [8], in [9] and in assay [10] was > 100 µM throughout.
Take `O=C1OC(c2ccc(O)c(Cl)c2)(c2ccc(O)c(Cl)c2)c2ccc(Br)c3cccc1c23` (tested in a mixture with another compound): in assay [1], the GI50 was 13.9 µM. Also, the TGI stood at 27.2 µM in assay [1]; 44 µM in assay [2]; 40.3 µM in assay [3]; 29.3 µM in assay [4]; 44.5 µM in [5]; 41.1 µM in assay [6]. In addition, the TGI in assay [7] was 34.8 µM; in [8], 31.3 µM; in assay [9] it was 41.1 µM; in [10], 26.1 µM.
For `COc1cc(OC)c2c(c1OC)OCC(Cc1ccc(O)cc1)C2=O` (stereo not drawn), the TGI in assay [1], in assay [2], in assay [3], in assay [4], in [5] and in assay [6] was > 25 µM throughout. Besides, the TGI in assay [7], in [8], in assay [9] and in assay [10] was > 25 µM in each case.
In the case of `COc1cc([C@@H]2c3cc4c(cc3[C@@H](NCCNCCO)[C@H]3COC(=O)[C@H]23)OCO4)cc(OC)c1O`, the GI50 in [1] is 0.856 µM and 2.43 µM; in assay [8], 0.761 µM and 1.59 µM. Also, the TGI was 8.68 µM and 21.2 µM in assay [1]; > 100 µM in assay [2]; 5.18 µM and 6.52 µM in assay [3]; > 29.9 µM in assay [4]; 20.2 µM and 12 µM in assay [5]; 4.97 µM and 4.5 µM in assay [6]. Also, the TGI in assay [7] is 9.94 µM and 10.8 µM; in assay [8], 51.8 µM; in [9], > 100 µM; in assay [10], 5.34 µM and 3.61 µM.

The record behind these values is PubChem BioAssay (NCI).
